# Experimental data reported in patent publication US20190134005A1 (BioMarin Pharmaceutical Inc., priority 2016, published 2019).
# Biological target: T1, human CGT (Homo sapiens, UniProt Q16880)
# T1 sequence (Q16880 21-541): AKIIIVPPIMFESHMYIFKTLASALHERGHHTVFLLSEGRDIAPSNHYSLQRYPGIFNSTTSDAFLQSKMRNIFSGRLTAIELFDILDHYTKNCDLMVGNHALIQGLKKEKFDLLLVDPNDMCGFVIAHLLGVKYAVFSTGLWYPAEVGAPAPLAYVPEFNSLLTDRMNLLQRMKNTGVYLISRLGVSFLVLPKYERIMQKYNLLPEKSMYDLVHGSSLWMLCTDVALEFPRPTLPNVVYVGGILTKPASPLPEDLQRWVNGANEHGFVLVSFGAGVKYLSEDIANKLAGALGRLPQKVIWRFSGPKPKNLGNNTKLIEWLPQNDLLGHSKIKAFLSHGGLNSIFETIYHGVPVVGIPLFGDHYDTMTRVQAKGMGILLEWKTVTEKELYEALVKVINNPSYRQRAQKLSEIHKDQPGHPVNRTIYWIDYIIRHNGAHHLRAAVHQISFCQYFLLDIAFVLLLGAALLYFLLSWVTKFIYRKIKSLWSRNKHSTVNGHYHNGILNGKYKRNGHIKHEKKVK
# Test: CGT Enzyme Assay (Biological Example 2, RapidFire/MS/MS method with 0.01% Tween 80 added)
# Assay type: biochemical
# Conditions: enzymatic assay, CHO/CGT lysate
# Method: Full-length human CGT cDNA was cloned into the BamH1/Xho1 site of pcDNA3.1 (+) mammalian expression vector (V90-20, Invitrogen, Carlsbad, Calif.) and the plasmid was transfected into Chinese hamster ovary (CHO) cells. Lysate was prepared using M-PER (Mammalian Protein Extraction Reagent, ThermoFisher Scientific, Grand Island, N.Y.) in the presence of a protease inhibitor cocktail (P8340, Sigma, Saint Louis, Mo.). Each 100 mm dish (100% confluent, approximately 1×10^7 cells) was lysed with 250 μL of M-PER containing protease inhibitors. Protein concentration was determined using a Pierce BCA protein assay kit (ThermoFisher Scientific). […] The final concentration of DMSO was 0.5% in both compound-treated and mock-treated samples. Each individual reaction was diluted with 80 μL of methanol:acetronitrile (1:3) containing 5 μM N-docdecanoyl-NBD-galactosylceramide (internal standard) to stop the reaction. 200 μL H2O:acetonitile (1:1) was added to precipitate the protein. After sufficient mixing, the plates were centrifuged at 2469 g for 38 minutes, 200 μl of supernatant was transferred to a LC-MS 96-deep well plate and a second spin was performed at 2469 g for 10 minutes. The final supernatant was injected in triplicate for RapidFire/MS/MS analysis.
# The quantitative analysis of C6-NBD-dihydro-ceramide and C6-NBD-dihydro-galactosylceramide was performed on a Rapid Fire 360 high-throughput mass spectrometry system (Agilent Technologies, Palo Alto, Calif.) coupled with a API4000^+ triple quadrupole mass spectrometer (Applied Biosystems, Concord, Ontario, Canada). RapidFire software packages, including RapidFire Control panel, RapidFire UI and RapidFire Integrator (Agilent Technologies), were used to control the RapidFire instrument and to process data. Analyst 1.6.2 software packages (Applied Biosystems) were used to control the MS system and acquire MS data. 10 μL of sample was loaded on a micro-scale C4 solid-phase extraction (SPE) cartridge (Agilent Technologies) and salts were removed using water supplemented with 0.1% formic acid at the flow rate of 1.5 mL/min for 3 sec. C6-NBD-dihydro-ceramide and C6-NBD-dihydro-galactosylceramide were co-eluted into the mass spectrometer using acetonitrile containing 0.1% formic acid at the flow rate of 1.0 mL/min for 3 sec. The total cycle time of one injection was 8 secs. The MS/MS detection was performed in ESI negative mode.
# The C6-NBD-dihydro-galactosylceramide reading was normalized first by dividing the peak area of C6-NBD-dihydro-galactosylceramide by the peak area of the internal standard, N-docdecanoyl-NBD-galactosylceramide.
row,Compound,IC50 [µM]
1,"CC1(C)[C@@H](c2cccc(Cl)c2)N(c2ccc(Cl)cc2)C(=O)N1c1ccc(Cl)cc1 [Example 8-1, (R)-5-(3-chlorophenyl)-1,3-bis(4-chlorophenyl)-4,4-dimethylimidazolidin-2-one]",10 to 30
2,"Cc1ccc(N2C(=O)N(c3ccc(C#N)cc3)[C@@H](c3cccc(OC(F)(F)F)c3)C2(C)C)cc1 [Example 50-2, (S)-4-(4,4-dimethyl-2-oxo-3-(p-tolyl)-5-(3-(trifluoromethoxy)phenyl)imidazolidin-1-yl)benzonitrile]",10 to 30
3,"CC1(C)[C@H](c2cccc(OC(F)(F)F)c2)N(c2ccc(Cl)cc2)C(=O)N1c1ccc(Cl)cc1 [Example 7-2, (S)-1,3-bis(4-chlorophenyl)-4,4-dimethyl-5-(3-(trifluoromethoxy)phenyl)imidazolidin-2-one]",< 1
4,"CC1(C)[C@H](c2cccc(OC(F)F)c2)N(c2ccc(Cl)cc2)C(=O)N1c1ccc(Cl)cc1 [Example 9-2, (S)-1,3-bis(4-chlorophenyl)-5-(3-(difluoromethoxy)phenyl)-4,4-dimethylimidazolidin-2-one]",< 1
5,"O=C1N(c2ccc(Cl)cc2)C2CCCCC2(c2cccc(OC(F)(F)F)c2)N1c1ccc(Cl)cc1 (stereo not shown) [Example 15-1, 1,3-bis(4-chlorophenyl)-3a-(3-(trifluoromethoxy)phenyl)octahydro-2H-benzo[d]imidazol-2-one]",10 to 30
6,"CCC[C@]1(C)[C@@H](c2cccc(OC(F)(F)F)c2)N(c2ccc(Cl)cc2)C(=O)N1c1ccc(Cl)cc1 [Example 22-2, (4R,5R)-1,3-bis(4-chlorophenyl)-4-methyl-4-propyl-5-(3-(trifluoromethoxy)phenyl)imidazolidin-2-one]",< 1
7,"C[C@]1(C(F)(F)F)[C@@H](c2cccc(OC(F)(F)F)c2)N(c2ccc(C#N)cc2)C(=O)N1c1ccc(C#N)cc1 [Example 39-2, 4,4′-((4R,5R)-4-methyl-2-oxo-5-(3-(trifluoromethoxy)phenyl)-4-(trifluoromethyl)imidazolidine-1,3-diyl)dibenzonitrile]",10 to 30
8,"CCC[C@@]1(C)[C@H](c2cccc(C#N)c2)N(c2ccc(Cl)cc2)C(=O)N1c1ccc(Cl)cc1 [Example 33-2, 3-((4S,5S)-1,3-bis(4-chlorophenyl)-5-methyl-2-oxo-5-propylimidazolidin-4-yl)benzonitrile]",1 to 10
9,"CC[C@@]1(C)[C@@H](c2cccc(OC(F)(F)F)c2)N(c2ccc(C#N)cc2)C(=O)N1c1ccc(C#N)cc1 [Example 51-6, 4,4′-((4S,5R)-4-ethyl-4-methyl-2-oxo-5-(3-(trifluoromethoxy)phenyl)imidazolidine-1,3-diyl)dibenzonitrile]",10 to 30
10,"CCC1(CC)[C@H](c2cccc(OC(F)(F)F)c2)N(c2ccc(Cl)cc2)C(=O)N1c1ccc(Cl)cc1 [Example 17-2, (S)-1,3-bis(4-chlorophenyl)-4,4-diethyl-5-(3-(trifluoromethoxy)phenyl)imidazolidin-2-one]",1 to 10
11,"COC[C@]1(C)[C@H](c2cccc(C#N)c2)N(c2ccc(Cl)cc2)C(=O)N1c1ccc(Cl)cc1 [Example 38-2, 3-((4S,5S)-1,3-bis(4-chlorophenyl)-5-(methoxymethyl)-5-methyl-2-oxoimidazolidin-4-yl)benzonitrile]",< 1
12,"COC[C@@]1(C)[C@@H](c2cccc(C#N)c2)N(c2ccc(Cl)cc2)C(=O)N1c1ccc(Cl)cc1 [Example 38-1, 3-((4R,5R)-1,3-bis(4-chlorophenyl)-5-(methoxymethyl)-5-methyl-2-oxoimidazolidin-4-yl)benzonitrile]",1 to 10
13,"CC1(C)[C@H](c2cccc(OC(F)(F)F)c2)N(c2ccc(Cl)cc2)C(=O)N1c1ccc(C#N)cc1 [Example 41-2, (S)-4-(3-(4-chlorophenyl)-5,5-dimethyl-2-oxo-4-(3-(trifluoromethoxy)phenyl)imidazolidin-1-yl)benzonitrile]",< 1
14,O=C1N(c2ccc(Cl)cc2)C2CCCC2(c2cccc(O)c2)N1c1ccc(Cl)cc1 (stereo not shown) [Example 18],10 to 30
15,C[C@@]1(C(F)(F)F)[C@H](c2cccc(OC(F)(F)F)c2)N(c2ccc(Cl)cc2)C(=O)N1c1ccc(Cl)cc1 [Example 25-1],< 1
16,"O=C1N(c2ccc(Cl)cc2)[C@H]2CCC[C@@]2(c2cccc(C(F)F)c2)N1c1ccc(Cl)cc1 [Example 16-1, (3aS,6aS)-1,3-bis(4-chlorophenyl)-3a-(3-(difluoromethyl)phenyl)hexahydrocyclopenta[d]imidazol-2(1H)-one]",10 to 30
17,"CC1(C)[C@H](c2cccc(OC(F)(F)F)c2)N(c2ccc(C(F)(F)F)cc2)C(=O)N1c1ccc(C(F)(F)F)cc1 [Example 20-2, (S)-4,4-dimethyl-5-(3-(trifluoromethoxy)phenyl)-1,3-bis(4-(trifluoromethyl)phenyl)imidazolidin-2-one]",10 to 30
18,"CC1(C)[C@@H](c2cccc(OC(F)(F)F)c2)N(c2ccc(Cl)cc2)C(=O)N1c1ccc(Cl)cc1 [Example 7-1, (R)-1,3-bis(4-chlorophenyl)-4,4-dimethyl-5-(3-(trifluoromethoxy)phenyl)imidazolidin-2-one]",1 to 10
19,"Cc1ccc(N2C(=O)N(c3ccc(C)cc3)C3(COC3)[C@H]2c2cccc(C#N)c2)cc1 [Example 32-1, (R)-3-(6-oxo-5,7-di-p-tolyl-2-oxa-5,7-diazaspiro[3.4]octan-8-yl)benzonitrile]",10 to 30
20,"CC1(C)[C@H](c2cccc(C#N)c2)N(c2ccc(Cl)cc2)C(=O)N1c1ccc(Cl)cc1 [Example 10-2, (S)-3-(1,3-bis(4-chlorophenyl)-5,5-dimethyl-2-oxoimidazolidin-4-yl)benzonitrile]",< 1
21,N#Cc1cccc(C23CCCCC2N(c2ccc(Cl)cc2)C(=O)N3c2ccc(Cl)cc2)c1 (stereo not shown) [Example 14],< 1
22,"Cc1ccc(N2C(=O)N(c3ccc(C)cc3)C3(CCCC3)[C@H]2c2cccc(OC(F)(F)F)c2)cc1 [Example 35-1, (R)-1,3-di-p-tolyl-4-(3-(trifluoromethoxy)phenyl)-1,3-diazaspiro[4.4]nonan-2-one]",1 to 10
23,"CC1(C)[C@H](c2cccc(C(F)(F)F)c2)N(c2ccc(Cl)cc2)C(=O)N1c1ccc(Cl)cc1 [Example 6-2, (S)-1,3-bis(4-chlorophenyl)-4,4-dimethyl-5-(3-(trifluoromethyl)phenyl)imidazolidin-2-one]",< 1
24,"CCC[C@]1(C)[C@@H](c2cccc(C#N)c2)N(c2ccc(Cl)cc2)C(=O)N1c1ccc(Cl)cc1 [Example 33-1, 3-((4R,5R)-1,3-bis(4-chlorophenyl)-5-methyl-2-oxo-5-propylimidazolidin-4-yl)benzonitrile]",< 1
25,"Cc1ccc(N2C(=O)N(c3ccc(C)cc3)C(C)(C)[C@H]2c2cccc(OC(F)(F)F)c2)cc1 [Example 21-1, (R)-4,4-dimethyl-1,3-di-p-tolyl-5-(3-(trifluoromethoxy)phenyl)imidazolidin-2-one]",1 to 10
26,"O=C1N(c2ccc(Cl)cc2)C2CCOC[C@]2(c2cccc(OC(F)(F)F)c2)N1c1ccc(Cl)cc1 (stereo partly drawn) [Example 31-1, (3aR)-1,3-bis(4-chlorophenyl)-3a-(3-(trifluoromethoxy)phenyl)hexahydropyrano[3,4-d]imidazol-2(3H)-one]",10 to 30
27,"CC[C@]1(C)[C@@H](c2cccc(OC(F)(F)F)c2)N(c2ccc(C#N)cc2)C(=O)N1c1ccc(C#N)cc1 [Example 51-3, 4,4′-((4R,5R)-4-ethyl-4-methyl-2-oxo-5-(3-(trifluoromethoxy)phenyl)imidazolidine-1,3-diyl)dibenzonitrile]",1 to 10
28,"C[C@]1(C(F)(F)F)[C@@H](c2cccc(C#N)c2)N(c2ccc(Cl)cc2)C(=O)N1c1ccc(Cl)cc1 [Example 27-2, 3-((4R,5R)-1,3-bis(4-chlorophenyl)-5-methyl-2-oxo-5-(trifluoromethyl)imidazolidin-4-yl)benzonitrile]",< 1
